Counter-ions that a name gives are not always drawn. Like-named read-outs stand apart in the source and are kept apart here.
Columns and labels:
[1] = target: T1, SARS-CoV-2 PLpro (Severe acute respiratory syndrome coronavirus 2, UniProt P0DTD1); experiment: biochemical
T1 construct: containing 60 nM papain-like protease

[2] = system: SARS-CoV-2; experiment: Anti-viral potency in VERO E6 cells (cytopathic viral activity, crystal violet); format: cell-based; settings: Severe acute respiratory syndrome coronavirus 2, Vero C1008, 48 h, read-out: SARS-COV-2 EC50 (μM)
[3] = system: human Hep G2 cells (ATCC HB-8065); experiment: Cytotoxicity in Hep G2 cells (CellTiter-Glo); format: cell-based
[4] = 60 nM papain-like protease, 50 μM Z-RLRGG-AMC, pH 7.5, 37° C., read-out: SARS-CoV-2 PLpro IC50
[5] = Hep G2 cells, 100 μM test article, 24-hour exposure

Row | Compound | IC50 [1, 4] [µM] | EC50 [2] [µM] | % Cell Viability [3, 5] [%] | IC50 [1] [µM] | % Cell Viability ([3]; human, 24 h, 100 μM) [%]
1 | COc1cc(-c2cnn(C)c2)cc([C@@H](C)NC(=O)c2cc(N3CCN(C)CC3)ccc2C)c1 [Example 219, N-[(1R)-1-[3-Methoxy-5-(1-methylpyrazol-4-yl)phenyl]ethyl]-2-methyl-5-(4-methylpiperazin-1-yl)benzamide] | < 2 | < 5 |  |  | 
2 | COc1ccc([C@@H](C)NC(=O)c2cc(N3C[C@H]4C[C@@H]3CN4C)ccc2C)cc1-c1csc(C(=O)N(C)C)c1 [Example 286, 4-[2-Methoxy-5-[(1R)-1-[[2-methyl-5-[(1R,4R)-5-methyl-2,5-diazabicyclo[2.2.1]heptan-2-yl]benzoyl]amino]ethyl]phenyl]-N,N-dimethyl-thiophene-2-carboxamide] | < 2 |  | 50.3 |  | 
3 | COc1ccc([C@@H](C)NC(=O)c2cc(N3C[C@H]4C[C@@H]3CN4C)ccc2C)cc1-c1csc(C(=O)NC2CC2)c1 [Example 287, N-Cyclopropyl-4-[2-methoxy-5-[(1R)-1-[[2-methyl-5-[(1R,4R)-5-methyl-2,5-diazabicyclo[2.2.1]heptan-2-yl]benzoyl]amino]ethyl]phenyl]thiophene-2-carboxamide] | < 2 |  | 43.4 |  | 
4 | CNC(=O)c1cc(-c2cc([C@@H](C)NC(=O)c3cc(N4CCN(C)CC4)ccc3C)ccc2OC)cs1 [Example 288, 4-[2-Methoxy-5-[(1R)-1-[[2-methyl-5-(4-methylpiperazin-1-yl)benzoyl]amino]ethyl]phenyl]-N-methyl-thiophene-2-carboxamide] | < 2 |  | 47.2 |  | 
5 | COc1cc(-c2cc(C(=O)N(C)C)n(C)c2)cc([C@@H](C)NC(=O)c2cc(N3C[C@H]4C[C@@H]3CN4C)ccc2C)c1 [Example 290, 4-[3-Methoxy-5-[(1R)-1-[[2-methyl-5-[(1R,4R)-5-methyl-2,5-diazabicyclo[2.2.1]heptan-2-yl]benzoyl]amino]ethyl]phenyl]-N,N,1-trimethyl-pyrrole-2-carboxamide] | < 2 |  | 72.9 |  | 
6 | COc1ccc([C@@H](C)NC(=O)c2cc(N3CCN(C)CC3)ccc2C)cc1O [Example 291, N-[(1R)-1-(3-Hydroxy-4-methoxy-phenyl)ethyl]-2-methyl-5-(4-methylpiperazin-1-yl)benzamide] | < 5 |  | 97.4 |  | 
7 | COc1ccc([C@@H](C)NC(=O)c2cc(N3CCN(C)CC3)ccc2C)cc1OCCN1CCOCC1 [Example 292, N-[(1R)-1-[4-Methoxy-3-(2-morpholinoethoxy)phenyl]ethyl]-2-methyl-5-(4-methylpiperazin-1-yl)benzamide] | < 2 |  | 88.9 |  | 
8 | COc1ccc([C@@H](C)NC(=O)c2cc(N3CCN(C)CC3)ccc2C)cc1OCCO [Example 294, N-[(1R)-1-[3-(2-Hydroxyethoxy)-4-methoxy-phenyl]ethyl]-2-methyl-5-(4-methylpiperazin-1-yl)benzamide] | < 5 |  | 120.9 |  | 
9 | COc1ccc([C@@H](C)NC(=O)c2cc(N3CCN(C)CC3)ccc2C)cc1OCCN [Example 295, N-[(1R)-1-[3-(2-Aminoethoxy)-4-methoxy-phenyl]ethyl]-2-methyl-5-(4-methylpiperazin-1-yl)benzamide Dihydrochloride Salt] | < 10 |  | 107.9 |  | 
10 | COc1cc([C@@H](C)NC(=O)c2cc(N3C[C@H]4C[C@@H]3CN4C)ccc2C)ccc1OCC1CC1 [Example 297, N-[(1R)-1-[4-(Cyclopropylmethoxy)-3-methoxy-phenyl]ethyl]-2-methyl-5-[(1R,4R)-5-methyl-2,5-diazabicyclo[2.2.1]heptan-2-yl]benzamide] | < 2 |  | 61.1 |  | 
11 | COc1cc([C@@H](C)NC(=O)c2cc(N3C[C@H]4CC[C@@H](C3)N4)ccc2C)ccc1OCC1CC1 [Example 298, N-[(1R)-1-[4-(Cyclopropylmethoxy)-3-methoxy-phenyl]ethyl]-5-[(1R,5S)-3,8-diazabicyclo[3.2.1]octan-3-yl]-2-methyl-benzamide] |  |  |  | < 2 | 43.9
12 | COc1ccc([C@@H](C)NC(=O)c2cc(C3CCN(C)CC3)ccc2C)cc1Br [Example 299, N-[(1R)-1-(3-Bromo-4-methoxy-phenyl)ethyl]-2-methyl-5-(1-methyl-4-piperidyl)benzamide] | < 2 |  | 76.2 |  | 
13 | COc1cc(-c2cn(C)nc2C)cc([C@@H](C)NC(=O)c2cc(C3CCN(C)CC3)ccc2C)c1 [Example 301, N-[(1R)-1-[3-(1,3-Dimethylpyrazol-4-yl)-5-methoxy-phenyl]ethyl]-2-methyl-5-(1-methyl-4-piperidyl)benzamide] | < 2 |  | 77.5 |  | 
14 | COc1cc(-c2cnn(C)c2)cc([C@@H](C)NC(=O)c2cc(C3CCN(C)CC3)ccc2C)c1 [Example 302, N-[(1R)-1-[3-Methoxy-5-(1-methylpyrazol-4-yl)phenyl]ethyl]-2-methyl-5-(1-methyl-4-piperidyl)benzamide] | < 2 |  | 67.1 |  | 
15 | COc1cc(-c2cnn(C)c2)cc([C@@H](C)NC(=O)c2cc(C3CCNCC3)ccc2C)c1 [Example 303, N-[(1R)-1-[3-Methoxy-5-(1-methylpyrazol-4-yl)phenyl]ethyl]-2-methyl-5-(4-piperidyl)benzamide] | < 2 |  | 73.2 |  | 
16 | Cc1ccc(N2CCN(C)CC2)cc1C(=O)N[C@H](C)c1cccc(C(=O)NC[C@@H](O)CO)c1 [Example 308, N-[(1R)-1-[3-[[(2R)-2,3-Dihydroxypropyl]carbamoyl]phenyl]ethyl]-2-methyl-5-(4-methylpiperazin-1-yl)benzamide hydrochloride salt] | < 10 |  | 126.8 |  | 
17 | Cc1ccc(N2CCN(C)CC2)cc1C(=O)N[C@H](C)c1cccc(C(=O)NC[C@H](O)CO)c1 [Example 309, N-[(1R)-1-[3-[[(2S)-2,3-Dihydroxypropyl]carbamoyl]phenyl]ethyl]-2-methyl-5-(4-methylpiperazin-1-yl)benzamide] | < 5 |  | 118.2 |  | 
18 | Cc1ccc(N2CCN(C)CC2)cc1C(=O)N[C@H](C)c1cccc(C(=O)NCC(N)=O)c1 [Example 310, N-[(1R)-1-[3-[(2-Amino-2-oxo-ethyl)carbamoyl]phenyl]ethyl]-2-methyl-5-(4-methylpiperazin-1-yl)benzamide hydrochloride salt] | < 5 |  | 124.4 |  | 
19 | Cc1ccc(N2CCN(C)CC2)cc1C(=O)N[C@H](C)c1cccc(C(=O)N(C)C)c1 [Example 311, N-[(1R)-1-[3-(Dimethylcarbamoyl)phenyl]ethyl]-2-methyl-5-(4-methylpiperazin-1-yl)benzamide] | < 20 |  | 130.7 |  | 
20 | CNC(=O)c1cccc([C@@H](C)NC(=O)c2cc(N3CCN(C)CC3)ccc2C)c1 [Example 312, 2-Methyl-N-[(1R)-1-[3-(methylcarbamoyl)phenyl]ethyl]-5-(4-methylpiperazin-1-yl)benzamide] | < 10 |  | 78.3 |  | 
21 | Cc1ccc(N2CCN(C)CC2)cc1C(=O)N[C@H](C)c1cccc(C#CCO)c1 [Example 315, N-[(1R)-1-[3-(3-Hydroxyprop-1-ynyl)phenyl]ethyl]-2-methyl-5-(4-methylpiperazin-1-yl)benzamide] | < 5 |  | 122.7 |  | 

— patent publication US20240383852A1, “ANTI-VIRAL COMPOUNDS” (INFEX Therapeutics Limited, priority 2021, published 2024)
